Source: patent publication US7205403B2, “8-Heteroaryl xanthine adenosine A2B receptor antagonists” (King Pharmaceuticals Research and Development, Inc., priority 2002, dated 2007)
“Also recorded” adds a separate entry of the source. Like-named read-outs stand apart in the source and are kept apart here.

Key:
[1] = target: T1, human A2B adenosine receptor (Homo sapiens, UniProt P29275); assay: [3H]DPCPX binding to human A2B receptors expressed in HEK293 cells; design: host or cells: HEK 293 cells (membranes); settings: geometric mean (95% confidence interval); >1000 = no appreciable binding; read-out: Ki, [3H]DPCPX binding to human A2B receptors expressed in HEK293 cells
T1 sequence (P29275 1-332): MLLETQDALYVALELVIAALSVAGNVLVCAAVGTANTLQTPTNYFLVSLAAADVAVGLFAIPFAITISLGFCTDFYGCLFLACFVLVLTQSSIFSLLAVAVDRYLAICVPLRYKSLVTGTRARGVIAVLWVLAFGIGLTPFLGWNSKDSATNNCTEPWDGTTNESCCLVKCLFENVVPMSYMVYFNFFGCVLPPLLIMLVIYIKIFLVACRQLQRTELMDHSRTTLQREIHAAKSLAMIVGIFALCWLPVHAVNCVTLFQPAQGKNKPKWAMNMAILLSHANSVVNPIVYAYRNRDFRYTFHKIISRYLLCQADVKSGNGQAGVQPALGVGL
Outline: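 Membranes (20 μg protein) from HEK293 cells expressing recombinant human A2B receptor were incubated 60 min at 25° C with 40 nM [3H]-DPCPX and 6–8 compound concentrations. Buffer was Tris-HCl with MgCl2, 1 mM EDTA, 0.1 mM benzamidine and 2 IU/ml adenosine deaminase, pH 7.4. Filter-bound radioactivity gave the inhibitory binding constant.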

[2] = target: T2, human A3 adenosine receptor (Homo sapiens, UniProt P0DMS8); assay: [3H]MRE3008F20 binding to human A3 receptors expressed in CHO cells
T2 construct: expressed in transfected cells; host or cells: CHO cells (membranes)
T2 sequence (P0DMS8 1-318): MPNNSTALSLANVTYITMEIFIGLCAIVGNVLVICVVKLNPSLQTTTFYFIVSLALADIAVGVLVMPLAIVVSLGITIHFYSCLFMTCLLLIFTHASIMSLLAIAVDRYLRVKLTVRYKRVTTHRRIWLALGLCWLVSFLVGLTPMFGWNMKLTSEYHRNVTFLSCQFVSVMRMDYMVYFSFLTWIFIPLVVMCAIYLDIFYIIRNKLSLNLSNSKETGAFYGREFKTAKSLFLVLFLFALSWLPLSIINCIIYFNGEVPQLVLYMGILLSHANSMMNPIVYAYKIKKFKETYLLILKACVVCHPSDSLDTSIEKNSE
Outline: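 CHO cell membranes (50 μg protein) competed against 1 nM [3H]-MRE3008-F20 in 50 mM Tris HCl, MgCl2, pH 7.4, with 6–8 ligand concentrations in duplicate, 120 minutes at 4° C. Filter-bound radioactivity counted by scintillation; inhibitory binding constants derived.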

[3] = target: T3, human A2A adenosine receptor (Homo sapiens, UniProt P29274); assay: [3H]ZM241385 binding to human A2A receptors expressed in CHO cells; settings: for Ki: read-out: Ki, [3H]ZM241385 binding to human A2A receptors expressed in CHO cells
T3 construct: expressed in transfected cells; host or cells: CHO cells (membranes)
Outline: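 Membranes from adherent CHO cells, resuspended in 50 mM Tris HCl with 10 mM MgCl2, pH 7.4. The inhibitory binding constant is reported.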

[4] = target: T4, human A1 adenosine receptor (Homo sapiens, UniProt P30542); assay: [3H]DPCPX binding to human A1 receptors expressed in CHO cells
T4 construct: expressed in transfected cells; host or cells: CHO cells (membranes)
T4 sequence (P30542 1-326): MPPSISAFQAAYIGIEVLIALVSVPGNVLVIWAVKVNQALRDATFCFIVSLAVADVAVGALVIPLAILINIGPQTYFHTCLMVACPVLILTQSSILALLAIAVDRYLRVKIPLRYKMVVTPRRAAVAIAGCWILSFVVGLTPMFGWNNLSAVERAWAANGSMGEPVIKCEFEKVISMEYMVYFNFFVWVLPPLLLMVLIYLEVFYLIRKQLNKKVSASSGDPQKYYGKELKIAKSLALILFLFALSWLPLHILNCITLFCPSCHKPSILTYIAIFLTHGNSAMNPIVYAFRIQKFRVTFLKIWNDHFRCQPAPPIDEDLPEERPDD
Description: The cells were grown adherently and maintained in Dulbecco's modified Eagle's medium with nutrient mixture F12 without nucleosides at 37° C. in 5% CO2/95% air. The cells were washed with phosphate-buffered saline and scraped off flasks in ice cold hypotonic buffer ([…] Tris HCl, 2 mM EDTA, pH 7.4). The cell suspension was homogenized with a Polytron and the homogenate was centrifuged for 30 minutes at 48,000 g. The resultant membrane pellet was re-suspended in 50 mM Tris HCl buffer at pH 7.4 for A1 adenosine receptors; in 50 mM Tris HCl 10 mM MgCl, at pH 7.4 for A2A adenosine receptors; in 50 mM Tris HCl, 10 mM MgCl2, 1 mM EDTA, at pH 7.4 for A3 adenosine receptors and were utilized for binding assays.
Displacement experiments were performed for 120 minutes at 25° C. in 200 μl of buffer containing 1 nM ^3H]-DPCPX 20 μl of diluted membranes (50 μg of protein/assay) and at least 6 to 8 different concentrations of examined compounds.
The filter bound radioactivity was counted on Top Count (efficiency 57%) with Micro-Scint 20.
The filter bound radioactivity was counted on a Top Count brand Microplate Scintillation Counter (efficiency 57%) with Micro-Scint 20. […] Inhibitory binding constant. […] Results and Discussion

[5] = geometric mean (95% confidence interval), >1000 = no appreciable binding

T3 sequence (P29274 whole entry): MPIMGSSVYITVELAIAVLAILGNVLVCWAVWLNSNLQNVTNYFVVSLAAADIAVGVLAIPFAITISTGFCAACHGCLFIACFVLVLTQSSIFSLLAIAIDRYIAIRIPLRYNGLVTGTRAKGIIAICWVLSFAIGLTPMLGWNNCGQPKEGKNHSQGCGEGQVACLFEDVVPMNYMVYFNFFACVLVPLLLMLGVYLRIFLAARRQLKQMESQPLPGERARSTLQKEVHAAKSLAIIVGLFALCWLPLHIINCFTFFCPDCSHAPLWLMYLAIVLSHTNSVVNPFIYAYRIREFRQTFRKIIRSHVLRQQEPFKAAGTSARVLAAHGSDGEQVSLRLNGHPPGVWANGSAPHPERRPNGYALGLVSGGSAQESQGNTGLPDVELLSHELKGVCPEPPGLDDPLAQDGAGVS

Row | Ki [1] | Ki [2] | Ki [3] | Ki [4, 5] | Ki [4] | SMILES | Ki [2, 5] | Ki [3, 5] | Ki, [3H]MRE3008F20 binding to human A3 receptors expressed in CHO cells [2, 5] | Ki, [3H]ZM241385 binding to human A2A receptors expressed in CHO cells [3, 5] | Ki, [3H]DPCPX binding to human A1 receptors expressed in CHO cells [4, 5]
1 | 160 nM | > 1000 nM | > 1000 nM | 4480 nM | – | CCCn1c(=O)c2[nH]c(-c3cc(NC(=O)Cc4cccc(Cl)c4)nn3C)nc2n(CCC)c1=O [AS24, N-[5-(2,6-dioxo-1,3-dipropyl-2,3,6,9-tetrahydro-1H-purin-8-yl)-1-methyl-1H-pyrazol-3-yl]-2-(3-chlorophenyl)acetamide] | – | – | – | – | –
2 | 130 nM | > 1000 nM | > 1000 nM | 1900 nM | – | CCCn1c(=O)c2[nH]c(-c3cc(NC(=O)Cc4ccc(F)c(F)c4)nn3C)nc2n(CCC)c1=O [AS43, N-[5-(2,6-dioxo-1,3-dipropyl-2,3,6,9-tetrahydro-1H-purin-8-yl)-1-methyl-1H-pyrazol-3-yl]-2-(3,4-difluorophenyl)acetamide] | – | – | – | – | –
3 | 88 nM | > 1000 nM | > 1000 nM | 200 nM | – | CCCn1c(=O)c2[nH]c(-c3cc(NC(=O)Cc4ccc(F)cc4)nn3C)nc2n(CCC)c1=O [AS22, N-[5-(2,6-dioxo-1,3-dipropyl-2,3,6,9-tetrahydro-1H-purin-8-yl)-1-methyl-1H-pyrazol-3-yl]-2-(4-fluorophenyl)acetamide] | – | – | – | – | –
4 | 96 nM | > 1000 nM | > 1000 nM | – | – | CCCn1c(=O)c2[nH]c(-c3cc(NC(=O)Cc4cccc(OC)c4)nn3C)nc2n(CCC)c1=O [AS13, 2-(3-methoxyphenyl)-N-[5-(2,6-dioxo-1,3-dipropyl-2,3,6,9-tetrahydro-1H-purin-8-yl)-1-methyl-1H-pyrazol-3-yl]acetamide] | – | – | no appreciable affinity; also recorded: without significant binding | no appreciable affinity; also recorded: without significant binding | no appreciable affinity; also recorded: without significant binding
5 | 100 nM | > 1000 nM | > 1000 nM | 850 nM | – | CCCn1c(=O)c2[nH]c(-c3cc(NC(=O)Cc4ccc(OC)cc4)nn3C)nc2n(CCC)c1=O [AS23, 2-(4-methoxyphenyl)-N-[5-(2,6-dioxo-1,3-dipropyl-2,3,6,9-tetrahydro-1H-purin-8-yl)-1-methyl-1H-pyrazol-3-yl]acetamide] | – | – | – | – | –

Second part, the molecule before the results:

Row | SMILES | Ki [1] | Ki [2] | Ki [3] | Ki [4, 5] | Ki [4] | Ki [2, 5] | Ki [3, 5] | Ki, [3H]MRE3008F20 binding to human A3 receptors expressed in CHO cells [2, 5] | Ki, [3H]ZM241385 binding to human A2A receptors expressed in CHO cells [3, 5] | Ki, [3H]DPCPX binding to human A1 receptors expressed in CHO cells [4, 5]
6 | CCCn1c(=O)c2nc(-c3cc(OCC(=O)Nc4ccc(Br)cc4)n(C)n3)[nH]c2n(CCC)c1=O [AS60, N-(4-bromophenyl)-2-{[3-(2,6-dioxo-1,3-dipropyl-2,3,6,9-tetrahydro-1H-purin-8-yl)-1-methyl-1H-pyrazol-5-yl]oxy}acetamide] | 93 nM | > 1000 nM | > 1000 nM | 168 nM | – | – | – | – | – | –
7 | CCCn1c(=O)c2[nH]c(-c3cc(N)nn3C)nc2n(CCC)c1=O [AS3, 8-(3-amino-1-methyl-1H-pyrazol-5-yl)-1,3-dipropyl-3,7-dihydro-1H-purine-2,6-dione] | 235 nM | > 1000 nM | > 1000 nM | 201 nM | – | – | – | – | – | –
8 | CC(C)Cn1c(=O)c2[nH]c(-c3cc(OCC(=O)Nc4ccc(F)cc4)n(C)n3)nc2n(CC(C)C)c1=O [AS62, 2-{[3-(1,3-diisobutyl-2,6-dioxo-2,3,6,9-tetrahydro-1H-purin-8-yl)-1-methyl-1H-pyrazol-5-yl]oxy}-N-(4-fluorophenyl)acetamide] | 207 nM | > 1000 nM | > 1000 nM | 72 nM | – | – | – | – | – | –
9 | CCCn1c(=O)c2[nH]c(-c3cc(OCC(=O)Nc4ccc(C)cc4)nn3C)nc2n(CCC)c1=O [AS59, N-(4-methylphenyl)-2-{[5-(1,3-dipropyl-2,6-dioxo-2,3,6,7-tetrahydro-1H-purin-8-yl)-1-methyl-1H-pyrazol-3-yl]oxy}acetamide] | 1010 nM | – | – | > 1000 nM | – | > 1000 nM | > 1000 nM | – | – | –
10 | CCCn1c(=O)c2[nH]c(-c3cc(NC(=O)CCCNC(=O)OC(C)(C)C)nn3C)nc2n(CCC)c1=O [AS9, tert-butyl 4-{[5-(2,6-dioxo-1,3-dipropyl-2,3,6,7-tetrahydro-1H-purin-8-yl)-1-methyl-1H-pyrazol-3-yl]amino}-4-oxobutylcarbamate] | > 1000 nM | > 1000 nM | > 1000 nM | – | > 1000 nM | – | – | – | – | –
